Here are results for 30 molecules from patent publication US20080269170A1, “Novel 2,4-Dianilinopyrimidine Derivatives, the Preparation Thereof, Their Use as Medicaments, Pharmaceutical Compositions and, in Particular, as IKK Inhibitors” (sanofi-aventis, priority 2005, published 2008).

For orientation: melting point means the temperature of the solid-liquid transition. For the molecule `CCN1CCC(N(C)S(=O)(=O)c2ccc(Nc3nccc(Nc4ccc(F)cc4)n3)cc2)CC1` [Example 10, N-(1-Ethylpiperidin-4-yl)-4-[4-(4-fluoro-phenylamino)pyrimidin-2-ylamino]-N-methylbenzene-sulfonamide], the melting point is 162 to 163 °C.
Under `CN1CCC(N(C)S(=O)(=O)c2ccc(Nc3nccc(Nc4ccc(F)c(F)c4)n3)cc2)CC1` [Example 11, 4-[4-(3,4-Difluorophenylamino)pyrimidin-2-ylamino]-N-methyl-N-(1-methylpiperidin-4-yl)benzene-sulfonamide] stands 181 to 183 °C; under `CN1CCC(N(C)S(=O)(=O)c2ccc(Nc3nccc(Nc4ccc(F)c(Cl)c4)n3)cc2)CC1` [Example 12, 4-[4-(3-Chloro-4-fluorophenylamino)pyrimidin-2-ylamino]-N-methyl-N-(1-methylpiperidin-4-yl)benzenesulfonamide], 183 to 186 °C; under `CN(C1CCN(Cc2cccs2)CC1)S(=O)(=O)c1ccc(Nc2nccc(Nc3ccc(F)cc3)n2)cc1` [Example 13, 4-[4-(4-Fluorophenylamino)pyrimidin-2-ylamino]-N-methyl-N-(1-thiophen-2-ylmethylpiperidin-4-yl)benzenesulfonamide], 175 to 176 °C.
The molecule `CN1CCC(N(C2CC2)S(=O)(=O)c2ccc(Nc3nccc(Nc4ccc(F)cc4)n3)cc2)CC1` [Example 14, N-Cyclopropyl-4-[4-(4-fluorophenylamino)-pyrimidin-2-ylamino]-N-(1-methylpiperidin-4-yl)benzene-sulfonamide] displayed a melting point of 218 °C.
In the case of `CCN(C1CCN(Cc2ccccc2)C1)S(=O)(=O)c1ccc(Nc2nccc(Nc3ccc(F)cc3)n2)cc1` (stereo not drawn) [Example 15, N-(1-Benzylpyrrolidin-3-yl)-4-[4-(4-fluoro-phenylamino)pyrimidin-2-ylamino]-N-ethylbenzene-sulfonamide], the melting point is 125 to 127 °C.
In turn, `CN(C1CCN(Cc2ccsc2)CC1)S(=O)(=O)c1ccc(Nc2nccc(Nc3ccc(F)cc3)n2)cc1` [Example 16, 4-[4-(4-Fluorophenylamino)pyrimidin-2-ylamino]-N-methyl-N-(1-thiophen-3-ylmethylpiperidin-4-yl)benzenesulfonamide] came in with a melting point of 173 to 174 °C.
The molecule `CN(C)CCN(C1CCN(C)CC1)S(=O)(=O)c1ccc(Nc2nccc(Nc3ccc(F)cc3)n2)cc1` [Example 18, N-(2-Dimethylaminoethyl)-4-[4-(4-fluoro-phenylamino)pyrimidin-2-ylamino]-N-(1-methylpiperidin-4-yl)benzenesulfonamide] displayed a melting point of 135 to 137 °C.
As to `CN1CCC(N(CCO)S(=O)(=O)c2ccc(Nc3nccc(Nc4ccc(F)cc4)n3)cc2)CC1` [Example 19, 4-[4-(4-Fluorophenylamino)pyrimidin-2-ylamino]-N-(2-hydroxyethyl)-N-(1-methylpiperidin-4-yl)-benzenesulfonamide], the melting point was 125 to 135 °C.
In turn, `CN1CCC(N(C)S(=O)(=O)c2ccc(Nc3nc(Cl)cc(Nc4ccc(F)cc4)n3)cc2)CC1` [Example 20, 4-[4-Chloro-6-(4-fluorophenylamino)pyrimidin-2-ylamino]-N-methyl-N-(1-methylpiperidin-4-yl)benzenesulfonamide] displayed a melting point of 140 to 142 °C.
Take `CN1CCC(N(C)C(=O)CNS(=O)(=O)c2ccc(Nc3nccc(Nc4ccc(F)cc4)n3)cc2)CC1` [Example 25, 2-{4-[4-(4-Fluorophenylamino)pyrimidin-2-ylamino]benzenesulfonylamino}-N-methyl-N-(1-methyl-piperidin-4-yl)acetamide]: the melting point is 233 to 234.4 °C.
Under `CN(C1CCN(Cc2cc[n+]([O-])cc2)CC1)S(=O)(=O)c1ccc(Nc2nccc(Nc3ccc(F)cc3)n2)cc1` [Example 29, 4-[4-(4-Fluorophenylamino)pyrimidin-2-ylamino]-N-[1-(1-N-oxidepyridin-4-ylmethyl)piperidin-4-yl]-N-methylbenzenesulfonamide] stands 155 to 156 °C; under `Cc1ncc(CN2CCC(N(C)S(=O)(=O)c3ccc(Nc4nccc(Nc5ccc(F)cc5)n4)cc3)CC2)[nH]1` [Example 30, 4-[4-(4-Fluorophenylamino)pyrimidin-2-ylamino]-N-methyl-N-[1-(2-methyl-3H-imidazol-4-ylmethyl)piperidin-4-yl]benzenesulfonamide], 155 °C; under `CN(C1CCN(Cc2ccccc2F)CC1)S(=O)(=O)c1ccc(Nc2nccc(Nc3ccc(F)cc3)n2)cc1` [Example 31, N-[1-(2-Fluorobenzyl)piperidin-4-yl]-4-[4-(4-fluorophenylamino)pyrimidin-2-ylamino]-N-methyl-benzenesulfonamide], 182 to 183 °C.
`CN(C1CCN(Cc2cccc(F)c2)CC1)S(=O)(=O)c1ccc(Nc2nccc(Nc3ccc(F)cc3)n2)cc1` [Example 32, N-[1-(3-Fluorobenzyl)piperidin-4-yl]-4-[4-(4-fluorophenylamino)pyrimidin-2-ylamino]-N-methyl-benzenesulfonamide] returned a melting point of 207 °C.
Molecule `CN(C1CCN(Cc2ccc(F)cc2)CC1)S(=O)(=O)c1ccc(Nc2nccc(Nc3ccc(F)cc3)n2)cc1` [Example 33, N-[1-(4-Fluorobenzyl)piperidin-4-yl]-4-[4-(4-fluorophenylamino)pyrimidin-2-ylamino]-N-methyl-benzenesulfonamide] showed a melting point of 129 to 131 °C.
`CC(C)N1CCC(N(C)S(=O)(=O)c2ccc(Nc3nccc(Nc4ccc(F)cc4)n3)cc2)CC1` [Example 37, 4-[4-(4-Fluorophenylamino)pyrimidin-2-yl-amino]-N-(1-isopropylpiperidin-4-yl)-N-methylbenzene-sulfonamide] came in with a melting point of 202 to 203 °C.
In the case of `CC(C)CN1CCC(N(C)S(=O)(=O)c2ccc(Nc3nccc(Nc4ccc(F)cc4)n3)cc2)CC1` [Example 38, 4-[4-(4-Fluorophenylamino)pyrimidin-2-yl-amino]-N-(1-isobutylpiperidin-4-yl)-N-methylbenzene-sulfonamide] it was 194 to 195 °C; in that of `CC(C)CCN1CCC(N(C)S(=O)(=O)c2ccc(Nc3nccc(Nc4ccc(F)cc4)n3)cc2)CC1` [Example 39, 4-[4-(4-Fluorophenylamino)pyrimidin-2-yl-amino]-N-methyl-N-[1-(3-methylbutyl)piperidin-4-yl]-benzenesulfonamide], 184 to 185 °C.
`CN(C1CCN(CCCC(F)(F)F)CC1)S(=O)(=O)c1ccc(Nc2nccc(Nc3ccc(F)cc3)n2)cc1` [Example 40, 4-[4-(4-Fluorophenylamino)pyrimidin-2-yl-amino]-N-methyl-N-[1-(4,4,4-trifluorobutyl)piperidin-4-yl]benzenesulfonamide] returned a melting point of 166 to 167 °C.
In turn, `Cc1cc(Nc2ccnc(Nc3ccc(S(=O)(=O)N(CCN)C4CCNCC4)cc3)n2)ccc1F` [Example 48, N-(2-Aminoethyl)-4-[4-(4-fluoro-3-methyl-phenylamino)pyrimidin-2-ylamino]-N-piperidin-4-yl-benzenesulfonamide] displayed a melting point of 242 to 244 °C.
In the case of `CN(C1CCN(CC(C)(C)O)CC1)S(=O)(=O)c1ccc(Nc2nccc(Nc3ccc(F)cc3)n2)cc1` [Example 49, 4-[4-(4-Fluorophenylamino)pyrimidin-2-yl-amino]-N-[1-(2-hydroxy-2-methylpropyl)piperidin-4-yl]-N-methylbenzenesulfonamide] it was 216 to 217 °C; in that of `Cc1cc(Nc2ccnc(Nc3ccc(S(=O)(=O)N(C)C4CCN(C)CC4)cc3)n2)ccc1F` [Example 86, 4-({4-[(4-fluoro-3-methylphenyl)amino]-pyrimidin-2-yl}amino)-N-methyl-N-(1-methylpiperidin-4-yl)benzenesulfonamide], 110 to 120 °C; in that of `Cc1cc(Nc2ccnc(Nc3ccc(S(=O)(=O)N(CCN4CCCC4)C4CCN(C)CC4)cc3)n2)ccc1F` [Example 87, 4-({4-[(4-Fluoro-3-methylphenyl)amino]-pyrimidin-2-yl}amino)-N-(1-methylpiperidin-4-yl)-N-(2-pyrrolidin-1-ylethyl)benzenesulfonamide], 93 to 103 °C.
Regarding `CN1CCC(N(CCN2CCCC2)S(=O)(=O)c2ccc(Nc3nccc(Nc4ccc(F)cc4)n3)cc2)CC1` [Example 89, 4-({4-[(4-Fluorophenyl)amino]pyrimidin-2-yl}amino)-N-(1-methylpiperidin-4-yl)-N-(2-pyrrolidin-1-ylethyl)benzenesulfonamide], the melting point is 250 °C.
With `CC(C)(O)CNCCN(C1CCNCC1)S(=O)(=O)c1ccc(Nc2nccc(Nc3ccc(F)cc3)n2)cc1` [Example 102, 4-({4-[(4-Fluorophenyl)amino]pyrimidin-2-yl}amino)-N-{2-[(2-hydroxy-2-methylpropyl)amino]ethyl}-N-piperidin-4-ylbenzenesulfonamide], the melting point came to 120 °C.
In the case of `O=S(=O)(c1ccc(Nc2nccc(Nc3ccc(F)cc3)n2)cc1)N(CCNCC(F)(F)F)C1CCN(Cc2ccccc2)CC1` [Example 103, N-(1-Benzylpiperidin-4-yl)-4-({4-[(4-fluorophenyl)amino]pyrimidin-2-yl}amino)-N-{2-[(2,2,2-trifluoroethyl)amino]ethyl}benzenesulfonamide] it was 137 to 138 °C; in that of `CCN1CC(N(CCN2CCCC2)S(=O)(=O)c2ccc(Nc3nccc(Nc4ccc(F)c(C)c4)n3)cc2)C1` [Example 104, N-(1-Ethylazetidin-3-yl)-4-({4-[(4-fluoro-3-methylphenyl)amino]pyrimidin-2-yl}amino)-N-(2-pyrrolidin-1-ylethyl)benzenesulfonamide], 195 °C; in that of `CN(C1CCN(CCC(F)(F)F)CC1)S(=O)(=O)c1ccc(Nc2nccc(Nc3ccc(F)cc3)n2)cc1` [Example 107, 4-({4-[(4-Fluorophenyl)amino]pyrimidin-2-yl}amino)-N-methyl-N-[1-(3,3,3-trifluoropropyl)piperidin-4-yl]benzenesulfonamide], 195 to 196 °C.
`CN(C1CCN(CCCC(F)(F)F)CC1)S(=O)(=O)c1ccc(Nc2nccc(Nc3ccc(F)c(F)c3)n2)cc1` [Example 108, 4-({4-[(3,4-Difluorophenyl)amino]pyrimidin-2-yl}amino)-N-methyl-N-[1-(4,4,4-trifluorobutyl)-piperidin-4-yl]benzenesulfonamide] had a melting point of 192 °C.
